Measured values published in ChEMBL document CHEMBL1132746, “Biologically active oligodeoxyribonucleotides. Part 12: N2-methylation of 2'-deoxyguanosines enhances stability of parallel G-quadruplex and anti-HIV-1 activity” (Bioorg Med Chem Lett, 2000).

What was measured:
Conditions in all cases: Homo sapiens
[1] = system: MT4; assay: Concentration required to show cytotoxicity for MT-4 cells infected with HIV-1 IIIb strain; format: functional
[2] = system: MT4; assay: Tested for cytopathic effect of compound for MT-4 cells infected with HIV-1 IIIb strain; format: functional, cell-based
[3] = system: MT4; assay: Tested for cytopathic effect of compound for MT-4 cells infected with HIV-1 IIIb strain relative to R-95288 (1); format: functional, cell-based

Cc1cn([C@H]2C[C@H](OP(=O)(O)O[C@H]3O[C@@H](n4cnc5c(=O)[nH]c(N)nc54)C[C@@H]3OP(=O)(O)OC[C@H]3O[C@@H](n4cnc5c(=O)[nH]c(N)nc54)C[C@@H]3OP(=O)(O)OC[C@H]3O[C@@H](n4cnc5c(=O)[nH]c(N)nc54)C[C@@H]3OP(=O)(O)OC[C@H]3O[C@@H](n4cnc5c4N=CNC5N)C[C@@H]3OP(=O)(O)OC[C@H]3O[C@@H](n4cnc5c(=O)[nH]c(N)nc54)C[C@@H]3OP(=O)(O)OCCO)[C@@H](COCc3ccc(OCc4ccccc4)c(OCc4ccccc4)c3)O2)c(=O)[nH]c1=O (some centres undefined)
CC50 [1]: > 40 µM
IC50 [2]: 1 µM

Cc1cn([C@H]2C[C@H](OP(=O)(O)O[C@H]3O[C@@H](n4cnc5c(O)nc(N)nc54)C[C@@H]3OP(=O)(O)OC[C@H]3O[C@@H](n4cnc5c(O)nc(N)nc54)C[C@@H]3OP(=O)(O)OC[C@H]3O[C@@H](n4cnc5c(O)nc(N)nc54)C[C@@H]3OP(=O)(O)O)[C@@H](COCc3ccc(OCc4ccccc4)c(OCc4ccccc4)c3)O2)c(=O)[nH]c1=O
CC50 [1]: > 40 µM
IC50 [3]: 43 µM
